Read-outs that look alike come from different tables or passages of the source.
What was measured:
Type in all cases: biochemical
[1] = biological target: CDK2/CCNE1 (Homo sapiens, UniProt P24941); assay: CDK2 homogeneous time-resolved fluorescence (HTRF) kinase assay; details: CDK2/CCNE
Method in brief: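 3 nM CDK2/CCNE1 was preincubated with compound for 20 min at 23 °C in HEPES buffer (pH not stated), then reacted 60 min with 1 mM ATP and 50 nM ULight-4E-BP1 (Thr37/46) peptide. After EDTA stop, Eu-anti-phospho-4E-BP1 antibody (2 nM) was added for 60 min and TR-FRET read at 665 nm.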

[2] = biological target: CDK4/CCND3 (Homo sapiens, UniProt P11802); assay: CDK4 homogeneous time-resolved fluorescence (HTRF) kinase assay; details: CDK4/CCND
CDK4/CCND3, sequence (P11802 whole entry): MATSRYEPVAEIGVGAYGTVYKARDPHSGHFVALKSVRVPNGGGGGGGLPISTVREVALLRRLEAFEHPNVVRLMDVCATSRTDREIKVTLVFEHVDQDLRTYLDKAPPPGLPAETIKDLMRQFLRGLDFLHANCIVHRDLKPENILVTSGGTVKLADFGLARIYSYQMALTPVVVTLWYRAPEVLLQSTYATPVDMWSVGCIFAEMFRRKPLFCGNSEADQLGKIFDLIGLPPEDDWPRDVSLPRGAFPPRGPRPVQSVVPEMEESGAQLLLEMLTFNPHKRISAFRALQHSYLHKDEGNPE
CDK4/CCND3, sequence (P30281 whole entry partner): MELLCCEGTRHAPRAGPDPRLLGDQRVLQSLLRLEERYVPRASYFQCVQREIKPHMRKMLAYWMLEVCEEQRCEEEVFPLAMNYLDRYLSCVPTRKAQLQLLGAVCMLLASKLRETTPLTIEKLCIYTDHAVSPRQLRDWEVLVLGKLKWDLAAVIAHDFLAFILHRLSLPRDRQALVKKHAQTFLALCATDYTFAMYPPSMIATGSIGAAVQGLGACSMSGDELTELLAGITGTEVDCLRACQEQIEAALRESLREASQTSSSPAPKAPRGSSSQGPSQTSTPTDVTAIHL
Method in brief: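 Compounds were preincubated with 1.5 nM CDK4/CCND3 for 20 min at 23 °C in HEPES buffer (pH not given), then reacted 60 min with 1 mM ATP and 50 nM ULight-4E-BP1 (Thr37/46) peptide. EDTA stop, Eu-anti-phospho-4E-BP1 detection; 665/615 nm ratio; IC50 from 11-point half-log titrations from 10 μM.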

[3] = biological target: CDK6/CCND1 (Homo sapiens, UniProt Q00534); assay: CDK6 homogeneous time-resolved fluorescence (HTRF) kinase assay; details: CDK6/CCND
CDK6/CCND1, sequence (Q00534 whole entry): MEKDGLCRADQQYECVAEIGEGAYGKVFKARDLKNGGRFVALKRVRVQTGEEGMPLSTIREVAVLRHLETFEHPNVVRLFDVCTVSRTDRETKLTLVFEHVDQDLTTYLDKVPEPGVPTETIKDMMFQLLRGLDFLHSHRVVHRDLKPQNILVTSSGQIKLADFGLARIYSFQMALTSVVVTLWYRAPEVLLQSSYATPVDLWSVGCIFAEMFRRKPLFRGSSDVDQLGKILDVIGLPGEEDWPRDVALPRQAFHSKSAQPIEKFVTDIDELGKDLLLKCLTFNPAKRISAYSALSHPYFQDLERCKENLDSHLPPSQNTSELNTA
CDK6/CCND1, sequence (P24385 whole entry partner): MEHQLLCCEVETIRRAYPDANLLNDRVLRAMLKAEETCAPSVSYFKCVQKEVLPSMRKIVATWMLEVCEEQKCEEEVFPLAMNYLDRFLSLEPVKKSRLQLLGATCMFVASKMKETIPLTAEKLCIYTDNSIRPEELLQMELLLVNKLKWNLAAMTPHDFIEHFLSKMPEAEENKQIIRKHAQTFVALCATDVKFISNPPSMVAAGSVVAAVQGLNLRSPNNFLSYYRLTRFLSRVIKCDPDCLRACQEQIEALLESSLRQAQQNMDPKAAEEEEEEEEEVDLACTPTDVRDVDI
Method in brief: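 1 nM enzyme, 1 mM ATP, 50 nM ULight-4E-BP1 (Thr37/46) peptide, 1% DMSO; 20 min compound preincubation, 60 min reaction, 23 °C. EDTA stop, 2 nM Eu-anti-phospho-4E-BP1 antibody 60 min. TR-FRET 665 nm (or 665/615 ratio); IC50 from 11-point half-log titration, top 10 μM.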

[4] = biological target: CDK1/CCNB1 (Homo sapiens, UniProt P06493); assay: CDK1 homogeneous time-resolved fluorescence (HTRF) kinase assay; details: CDK1/CCNB
CDK1/CCNB1, sequence (P06493 whole entry): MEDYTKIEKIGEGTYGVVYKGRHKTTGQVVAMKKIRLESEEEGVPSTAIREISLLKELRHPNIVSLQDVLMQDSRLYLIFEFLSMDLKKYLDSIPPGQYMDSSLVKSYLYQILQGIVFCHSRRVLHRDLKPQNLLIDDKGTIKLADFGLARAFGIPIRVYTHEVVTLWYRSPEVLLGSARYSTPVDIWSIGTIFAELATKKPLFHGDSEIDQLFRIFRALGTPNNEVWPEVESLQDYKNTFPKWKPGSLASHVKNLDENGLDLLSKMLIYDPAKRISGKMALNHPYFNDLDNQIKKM
CDK1/CCNB1, sequence (P14635 whole entry partner): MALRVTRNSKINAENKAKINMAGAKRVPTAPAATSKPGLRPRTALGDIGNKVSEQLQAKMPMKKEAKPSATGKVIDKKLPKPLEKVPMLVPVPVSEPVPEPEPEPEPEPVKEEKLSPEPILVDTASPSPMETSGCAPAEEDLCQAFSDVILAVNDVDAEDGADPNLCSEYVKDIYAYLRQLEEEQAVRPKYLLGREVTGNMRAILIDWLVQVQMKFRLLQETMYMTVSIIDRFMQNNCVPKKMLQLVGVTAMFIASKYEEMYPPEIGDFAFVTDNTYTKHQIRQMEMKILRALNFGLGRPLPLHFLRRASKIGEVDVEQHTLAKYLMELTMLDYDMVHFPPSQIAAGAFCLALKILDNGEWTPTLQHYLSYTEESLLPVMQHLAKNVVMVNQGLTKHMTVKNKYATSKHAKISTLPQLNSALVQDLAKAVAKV
Method in brief: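 Read-out: TR-FRET (Eu anti-phospho-4E-BP1 Thr37/46 antibody, 2 nM; 665 nm or 665/615 ratio) after 60 min phosphorylation of 50 nM ULight-peptide by 0.5 nM CDK1/CCNB1 at 1 mM ATP, 23 °C. Compound preincubated 20 min with enzyme; 1% DMSO.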

[5] = <25 nM, read-out: CDK2/CCNE IC50 <25 nM
[6] = >250 nM marked x, read-out: CDK4/CCND IC50 >250 nM
[7] = >250 nM marked x, read-out: CDK6/CCND IC50 >250 nM
[8] = >250 nM marked x, read-out: CDK1/CCNB IC50 >250 nM
[9] = 25-250 nM marked x, read-out: CDK1/CCNB IC50 25-250 nM
[10] = x = IC50 <25 nM, read-out: CDK2/CCNE IC50 (<25 nM)
[11] = x = IC50 25-250 nM, read-out: CDK4/CCND IC50 (25-250 nM)
[12] = x = IC50 >250 nM, read-out: CDK6/CCND IC50 (>250 nM column)
[13] = x = IC50 25-250 nM, read-out: CDK1/CCNB IC50 (25-250 nM)
[14] = x = IC50 >250 nM, read-out: CDK4/CCND IC50 (>250 nM column)
[15] = x = IC50 >250 nM, read-out: CDK1/CCNB IC50 (>250 nM column)
[16] = x = IC50 25-250 nM, read-out: CDK6/CCND IC50 (25-250 nM)

SMILES	IC50 [1, 10]	IC50 [2, 11]	IC50 [3, 12]	IC50 [4, 13]	other results
COc1cc(S(=N)(=O)C(C)C)ccc1Nc1cc2c(C#Cc3ccc4c(c3)NC(=O)C43CC3)nccc2cn1 (single isomer, unassigned) [Ex 334, 6'-((7-((2-methoxy-4-(propan-2-ylsulfonimidoyl)phenyl)amino)-2,6-naphthyridin-1-yl)ethynyl)spiro[cyclopropane-1,3'-indolin]-2'-one]	–	–	–	–	IC50 [1, 5]: < 25 nM; IC50 [2, 6]: > 250 nM; IC50 [3, 7]: > 250 nM; IC50 [4, 8]: > 250 nM
CCC1(CC)C(=O)Nc2cc(C#Cc3nccc4cnc(Nc5ccc(S(C)(=N)=O)cc5C)cc34)ccc21 (single isomer, unassigned) [Ex 336, 3,3-diethyl-6-((7-((2-methyl-4-(S-methylsulfonimidoyl)phenyl)amino)-2,6-naphthyridin-1-yl)ethynyl)indolin-2-one]	–	–	–	–	IC50 [1, 5]: < 25 nM; IC50 [2, 6]: > 250 nM; IC50 [3, 7]: > 250 nM; IC50 [4, 9]: 25 to 250 nM
CCC1(CC)C(=O)Nc2cc(C#Cc3nccc4cnc(Nc5ccc(S(=N)(=O)C6CC6)cc5)cc34)ccc21 (single isomer, unassigned) [Ex 339, 6-((7-((4-(cyclopropanesulfonimidoyl)phenyl)amino)-2,6-naphthyridin-1-yl)ethynyl)-3,3-diethylindolin-2-one]	–	–	–	–	IC50 [1, 5]: < 25 nM; IC50 [2, 6]: > 250 nM; IC50 [3, 7]: > 250 nM; IC50 [4, 9]: 25 to 250 nM
CCC1(CC)C(=O)Nc2cc(C#Cc3nccc4cnc(Nc5ccc(S(=N)(=O)C(C)C)cc5OC)cc34)ccc21 (single isomer, unassigned) [Ex 340, 3,3-diethyl-6-((7-((2-methoxy-4-(propan-2-ylsulfonimidoyl)phenyl)amino)-2,6-naphthyridin-1-yl)ethynyl)indolin-2-one]	–	–	–	–	IC50 [1, 5]: < 25 nM; IC50 [2, 6]: > 250 nM; IC50 [3, 7]: > 250 nM; IC50 [4, 8]: > 250 nM
COc1cc(S(=N)(=O)C(C)C)ccc1Nc1cc2c(C#Cc3ccc4c(c3)NC(=O)C43CCC3)nccc2cn1 (single isomer, unassigned) [Ex 345, 6'-((7-((2-methoxy-4-(propan-2-ylsulfonimidoyl)phenyl)amino)-2,6-naphthyridin-1-yl)ethynyl)spiro[cyclobutane-1,3'-indolin]-2'-one]	< 25 nM	–	> 250 nM	–	IC50 [2, 14]: > 250 nM; IC50 [4, 15]: > 250 nM
CC(C)S(=N)(=O)c1ccc(Nc2cc3c(C#Cc4cc5c(cc4N)C(C)(C)C(=O)N5)nccc3cn2)cc1 (single isomer, unassigned) [Ex 349, 5-amino-3,3-dimethyl-6-((7-((4-(propan-2-ylsulfonimidoyl)phenyl)amino)-2,6-naphthyridin-1-yl)ethynyl)indolin-2-one]	< 25 nM	25 to 250 nM	> 250 nM	25 to 250 nM	–
N=S(=O)(c1ccc(Nc2cc3c(C#Cc4ccc5c(c4)NC(=O)C54CC4)nccc3cn2)cc1)C1CCC1 (single isomer, unassigned) [Ex 350, 6'-((7-((4-(cyclobutanesulfonimidoyl)phenyl)amino)-2,6-naphthyridin-1-yl)ethynyl)spiro[cyclopropane-1,3'-indolin]-2'-one]	< 25 nM	–	–	25 to 250 nM	IC50 ([2]; x = IC50 <25 nM, read-out: CDK4/CCND IC50 (<25 nM)): < 25 nM; IC50 [3, 16]: 25 to 250 nM
CC(C)S(=N)(=O)c1ccc(Nc2cc3c(C#Cc4ccc5c(c4)NC(=O)C54CC4)nccc3cn2)cc1 (single isomer, unassigned) [Ex 354, 6'-((7-((4-(propan-2-ylsulfonimidoyl)phenyl)amino)-2,6-naphthyridin-1-yl)ethynyl)spiro[cyclopropane-1,3'-indolin]-2'-one]	< 25 nM	25 to 250 nM	–	25 to 250 nM	IC50 [3, 16]: 25 to 250 nM
CS(=N)(=O)c1ccc(Nc2cc3c(C#Cc4ccc5c(c4)NC(=O)C54CCC4)nccc3cn2)cc1 (single isomer, unassigned) [Ex 368, 6'-((7-((4-(S-methylsulfonimidoyl)phenyl)amino)-2,6-naphthyridin-1-yl)ethynyl)spiro[cyclobutane-1,3'-indolin]-2'-one]	< 25 nM	25 to 250 nM	> 250 nM	25 to 250 nM	–
CC(C)S(=N)(=O)c1ccc(Nc2cc3c(C#Cc4ccc5c(c4)NC(=O)C54CCC4)nccc3cn2)cc1 (single isomer, unassigned) [Ex 383, 6'-((7-((4-(propan-2-ylsulfonimidoyl)phenyl)amino)-2,6-naphthyridin-1-yl)ethynyl)spiro[cyclobutane-1,3'-indolin]-2'-one]	< 25 nM	25 to 250 nM	–	25 to 250 nM	IC50 [3, 16]: 25 to 250 nM
CCC1(CC)C(=O)Nc2cc(C#Cc3nccc4cnc(Nc5ccc(S(=N)(=O)C6CC6)cc5)cc34)ccc21 (single isomer, unassigned) [Ex 410, 6-((7-((4-(cyclopropanesulfonimidoyl)phenyl)amino)-2,6-naphthyridin-1-yl)ethynyl)-3,3-diethylindolin-2-one]	< 25 nM	25 to 250 nM	> 250 nM	25 to 250 nM	–

Further lines, with some results ahead:

IC50 [1, 10]	IC50 [2, 11]	IC50 [3, 12]	IC50 [4, 13]	SMILES	other results
< 25 nM	25 to 250 nM	> 250 nM	25 to 250 nM	N=S(=O)(c1ccc(Nc2cc3c(C#Cc4ccc5c(c4)NC(=O)C54CCC4)nccc3cn2)cc1)C1CC1 (single isomer, unassigned) [Ex 344, 6'-((7-((4-(cyclopropanesulfonimidoyl)phenyl)amino)-2,6-naphthyridin-1-yl)ethynyl)spiro[cyclobutane-1,3'-indolin]-2'-one]	–
< 25 nM	25 to 250 nM	> 250 nM	25 to 250 nM	CS(=N)(=O)c1ccc(Nc2cc3c(C#Cc4ccc5c(c4)NC(=O)C54CC4)nccc3cn2)cc1 (single isomer, unassigned) [Ex 358, 6'-((7-((4-(S-methylsulfonimidoyl)phenyl)amino)-2,6-naphthyridin-1-yl)ethynyl)spiro[cyclopropane-1,3'-indolin]-2'-one]	–
< 25 nM	25 to 250 nM	–	25 to 250 nM	N=S(=O)(c1ccc(Nc2cc3c(C#Cc4ccc5c(c4)NC(=O)C54CCC4)nccc3cn2)cc1)C1CCC1 (single isomer, unassigned) [Ex 363, 6'-((7-((4-(cyclobutanesulfonimidoyl)phenyl)amino)-2,6-naphthyridin-1-yl)ethynyl)spiro[cyclobutane-1,3'-indolin]-2'-one]	IC50 [3, 16]: 25 to 250 nM
< 25 nM	25 to 250 nM	–	25 to 250 nM	CCS(=N)(=O)c1ccc(Nc2cc3c(C#Cc4ccc5c(c4)NC(=O)C54CCC4)nccc3cn2)cc1 (single isomer, unassigned) [Ex 366, 6'-((7-((4-(ethylsulfonimidoyl)phenyl)amino)-2,6-naphthyridin-1-yl)ethynyl)spiro[cyclobutane-1,3'-indolin]-2'-one]	IC50 [3, 16]: 25 to 250 nM
–	–	> 250 nM	–	CC(C)S(=N)(=O)c1ccc(Nc2cc3c(C#Cc4cccnc4N)nccc3cn2)cc1 (single isomer, unassigned) [Ex 402, (4-((5-((2-aminopyridin-3-yl)ethynyl)-2,6-naphthyridin-3-yl)amino)phenyl)(imino)(isopropyl)-l6-sulfanone]	IC50 ([1]; x = IC50 25-250 nM, read-out: CDK2/CCNE IC50 (25-250 nM)): 25 to 250 nM; IC50 [2, 14]: > 250 nM; IC50 [4, 15]: > 250 nM
< 25 nM	–	> 250 nM	25 to 250 nM	CCC1(CC)C(=O)Nc2cc(C#Cc3nccc4cnc(Nc5ccc(S(=N)(=O)CC)cc5)cc34)ccc21 (single isomer, unassigned) [Ex 411, 3,3-diethyl-6-((7-((4-(ethylsulfonimidoyl)phenyl)amino)-2,6-naphthyridin-1-yl)ethynyl)indolin-2-one]	IC50 [2, 14]: > 250 nM
